Results from PubChem BioAssay (NCI).
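Test compounds were applied to cells in 96-well plates for 48 hours at 5 doses. GI50 = concentration required for 50% inhibition of growth. The concentration for full growth arrest is given as TGI.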

Legend:
Assay in all cases: NCI anticancer screen, dose series, 48 h
[1] = system: HCC-2998 colon
[2] = system: MALME-3M melanoma
[3] = system: NCI-H226 lung
[4] = system: RXF 393 renal
[5] = system: SK-MEL-2 melanoma
[6] = system: ACHN renal
[7] = system: KM12 colon
[8] = system: A549 NSCLC
[9] = system: CCRF-CEM leukemia
[10] = system: M14 melanoma
[11] = system: NCI/ADR-RES ovarian
[12] = system: SF-295 CNS
[13] = system: UO-31 renal
[14] = system: PC-3 prostate
[15] = system: OVCAR-4 ovarian
[16] = system: CAKI-1 renal
[17] = system: OVCAR-3 ovarian
[18] = system: HOP-62 NSCLC
[19] = system: COLO 205 colon
[20] = system: SK-MEL-28 melanoma
[21] = system: NCI-H522 lung
[22] = system: NCI-H460 lung
[23] = system: MDA-MB-231 breast
[24] = system: SNB-75 CNS
[25] = system: NCI-H23 lung
[26] = system: RPMI-8226 leukemia
[27] = system: HS 578T breast
[28] = system: OVCAR-8 ovarian
[29] = system: HT29 colon
[30] = system: BT-549 breast
[31] = system: SF-539 CNS
[32] = system: EKVX NSCLC
[33] = system: MCF7 breast
[34] = system: SN12C renal
[35] = system: HCT-15 colon
[36] = system: HL-60(TB) leukemia
[37] = system: U251 CNS
[38] = system: HOP-92 NSCLC
[39] = system: SNB-19 CNS
[40] = system: K-562 leukemia
[41] = system: MOLT-4 leukemia
[42] = system: SK-MEL-5 melanoma
[43] = system: SK-OV-3 ovarian
[44] = system: IGROV1 ovarian
[45] = system: MDA-MB-435
[46] = system: SW-620 colon
[47] = system: UACC-62 melanoma
[48] = system: TK-10 renal
[49] = system: 786-0 renal
[50] = system: LOX IMVI melanoma
[51] = system: A498 renal
[52] = system: UACC-257 melanoma
[53] = system: OVCAR-5 ovarian
[54] = system: DU-145 prostate
[55] = system: SF-268 CNS
[56] = system: HCT-116 colon
[57] = system: T-47D breast

Compound: CCS(=O)(=O)c1ccc(OC)c(Nc2nccc(N(C)c3ccc4c(C)[nH]nc4c3)n2)c1
- GI50 [1]: 8.18 µM
- TGI [1]: > 25 µM
- GI50 [2]: 8.48 µM
- TGI [2]: > 25 µM
- GI50 [3]: 1.85 µM
- TGI [3]: > 21.1 µM
- GI50 [4]: 2.7 µM
- TGI [4]: 7.81 µM
- GI50 [5]: 5.45 µM
- TGI [5]: 14.9 µM
- GI50 [6]: 5.95 µM
- TGI [6]: > 24.1 µM
- GI50 [7]: 5.7 µM
- TGI [7]: > 25 µM
- GI50 [8]: 9.83 µM
- TGI [8]: > 25 µM
- GI50 [9]: 8.15 µM
- TGI [9]: > 25 µM
- GI50 [10]: 8.46 µM
- TGI [10]: > 21.8 µM
- GI50 [11]: 6.32 µM
- TGI [11]: > 19.4 µM
- GI50 [12]: 4.17 µM
- TGI [12]: 10.4 µM
- GI50 [13]: 2.05 µM
- TGI [13]: 10.9 µM
- GI50 [14]: 5.46 µM
- TGI [14]: 22.1 µM
- GI50 [15]: 5.66 µM
- TGI [15]: > 25 µM
- GI50 [16]: 3.75 µM
- TGI [16]: 12.3 µM
- GI50 [17]: 7.42 µM
- TGI [17]: > 25 µM
- GI50 [18]: 6.72 µM
- TGI [18]: > 25 µM
- GI50 [19]: 11 µM
- TGI [19]: > 25 µM
- GI50 [20]: 6.8 µM
- TGI [20]: > 25 µM
- GI50 [21]: 3.57 µM
- TGI [21]: 10.5 µM
- GI50 [22]: 8.67 µM
- TGI [22]: > 25 µM
- GI50 [23]: 3.66 µM
- TGI [23]: 9.45 µM
- GI50 [24]: 2.94 µM
- TGI [24]: 8.38 µM
- GI50 [25]: 6.05 µM
- TGI [25]: > 25 µM
- GI50 [26]: 8.35 µM
- TGI [26]: > 25 µM
- GI50 [27]: 2.69 µM
- TGI [27]: 14.4 µM
- GI50 [28]: 7.22 µM
- TGI [28]: > 22.2 µM
- GI50 [29]: 5.66 µM
- TGI [29]: 16.4 µM
- GI50 [30]: 5.76 µM
- TGI [30]: 14.5 µM
- GI50 [31]: 4.17 µM
- TGI [31]: 9.86 µM
- GI50 [32]: 6.85 µM
- TGI [32]: > 25 µM
- GI50 [33]: 9.16 µM
- TGI [33]: > 25 µM
- GI50 [34]: 5.23 µM
- TGI [34]: > 25 µM
- GI50 [35]: 5.3 µM
- TGI [35]: 18.3 µM
- GI50 [36]: 7.37 µM
- TGI [36]: 18.9 µM
- GI50 [37]: 7.28 µM
- TGI [37]: > 25 µM
- GI50 [38]: 0.622 µM
- TGI [38]: 3.64 µM
- GI50 [39]: 9.74 µM
- TGI [39]: > 25 µM
- GI50 [40]: 2.79 µM
- TGI [40]: 16.8 µM
- GI50 [41]: 6.71 µM
- TGI [41]: > 25 µM
- GI50 [42]: 4 µM
- TGI [42]: 8.38 µM
- GI50 [43]: 5.03 µM
- TGI [43]: 17.8 µM
- GI50 [44]: 3.97 µM
- TGI [44]: 16.5 µM
- GI50 [45]: 5.34 µM
- TGI [45]: 13.5 µM
- GI50 [46]: 7.85 µM
- TGI [46]: > 25 µM
- GI50 [47]: 6.79 µM
- TGI [47]: 24.5 µM
- GI50 [48]: 5.15 µM
- TGI [48]: 14.5 µM
- GI50 [49]: 5.79 µM
- TGI [49]: 18.4 µM
- GI50 [50]: 4.29 µM
- TGI [50]: 12 µM
- GI50 [51]: 1.18 µM
- TGI [51]: 6.58 µM
- GI50 [52]: 7.57 µM
- TGI [52]: > 24 µM
- GI50 [53]: 5.75 µM
- TGI [53]: > 22.7 µM
- GI50 [54]: 8.45 µM
- TGI [54]: > 25 µM
- GI50 [55]: 4.74 µM
- TGI [55]: > 17.6 µM
- GI50 [56]: 8.69 µM
- TGI [56]: > 25 µM
- GI50 [57]: 4.77 µM
- TGI [57]: 21.9 µM

Compound: Cc1cc(N/N=C/c2nc(-c3ccccc3)oc2C)c2cc(Cl)ccc2n1
- GI50 [1]: 1.73 µM
- TGI [1]: 3.23 µM
- GI50 [2]: 1.94 µM
- TGI [2]: 3.51 µM
- GI50 [3]: 2.38 µM
- TGI [3]: 6.88 µM
- GI50 [4]: 1.7 µM
- TGI [4]: 3.42 µM
- GI50 [5]: 18.7 µM
- TGI [5]: 38.7 µM
- GI50 [6]: 1.74 µM
- TGI [6]: 3.14 µM
- GI50 [8]: 1.85 µM
- TGI [8]: 3.58 µM
- GI50 [10]: 1.83 µM
- TGI [10]: 3.54 µM
- GI50 [11]: 1.84 µM
- TGI [11]: 3.95 µM
- GI50 [12]: 1.69 µM
- TGI [12]: 3.2 µM
- GI50 [13]: 1.61 µM
- TGI [13]: 3.07 µM
- GI50 [14]: 1.8 µM
- TGI [14]: 3.55 µM
- GI50 [15]: 1.85 µM
- TGI [15]: 3.53 µM
- GI50 [16]: 1.69 µM
- TGI [16]: 3.1 µM
- GI50 [17]: 1.94 µM
- TGI [17]: 3.57 µM
- GI50 [18]: 1.85 µM
- TGI [18]: 3.66 µM
- GI50 [19]: 1.8 µM
- TGI [19]: 3.66 µM
- GI50 [20]: 1.71 µM
- TGI [20]: 3.16 µM
- GI50 [22]: 1.88 µM
- TGI [22]: 3.61 µM
- GI50 [23]: 1.85 µM
- TGI [23]: 3.69 µM
- GI50 [24]: 1.63 µM
- TGI [24]: 3.34 µM
- GI50 [25]: 1.7 µM
- TGI [25]: 3.61 µM
- GI50 [28]: 2.04 µM
- TGI [28]: 4.4 µM
- GI50 [29]: 1.82 µM
- TGI [29]: 3.59 µM
- GI50 [30]: 14.9 µM
- TGI [30]: 29.3 µM
- GI50 [31]: 1.7 µM
- TGI [31]: 3.17 µM
- GI50 [32]: 1.99 µM
- TGI [32]: 4.53 µM
- GI50 [33]: 1.64 µM
- TGI [33]: 3.56 µM
- GI50 [34]: 1.78 µM
- TGI [34]: 3.49 µM
- GI50 [35]: 1.68 µM
- TGI [35]: 3.37 µM
- GI50 [37]: 1.78 µM
- TGI [37]: 3.34 µM
- GI50 [38]: 1.43 µM
- TGI [38]: 2.87 µM
- GI50 [39]: 2.12 µM
- TGI [39]: 4.86 µM
- GI50 [41]: 2.04 µM
- TGI [41]: 4.54 µM
- GI50 [42]: 1.76 µM
- TGI [42]: 3.2 µM
- GI50 [43]: 1.75 µM
- TGI [43]: 3.29 µM
- GI50 [44]: 1.68 µM
- TGI [44]: 3.32 µM
- GI50 [45]: 1.78 µM
- TGI [45]: 3.26 µM
- GI50 [46]: 1.81 µM
- TGI [46]: 3.7 µM
- GI50 [47]: 1.7 µM
- TGI [47]: 3.36 µM
- GI50 [48]: 1.79 µM
- TGI [48]: 3.29 µM
- GI50 [49]: 1.64 µM
- TGI [49]: 3.38 µM
- GI50 [51]: 3.2 µM
- TGI [51]: 18.1 µM
- GI50 [52]: 2.01 µM
- TGI [52]: 4.9 µM
- GI50 [53]: 1.62 µM
- TGI [53]: 3.12 µM
- GI50 [54]: 2.15 µM
- TGI [54]: 4.49 µM
- GI50 [56]: 1.82 µM
- TGI [56]: 3.39 µM
- GI50 [57]: 2.02 µM
- TGI [57]: 4.22 µM
